In the supplement of paper PMC10307832:

Legend:
Assay in all cases: relative viability (nuclei count vs DMSO), 5 days (fraction); higher = more cells survive
NCI-H1793 = test system: NCI-H1793
Procedure, shortened: (§1)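 For relative viability, nuclei counts in treated wells were divided by those in vehicle wells. Lung cancer cell lines had been pin-tool dosed in 1536-well plates the day after seeding and cultured for 5 days, then fixed and stained in one step (final 0.05% Triton X-100, 1% formaldehyde, 1 ug/ml Hoechst) and imaged at 4×. Doses were one drug alone or a fixed anchor-drug dose plus five library-drug doses (not always all listed) in √10 steps, and values are duplicate-plate medians.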

EPLC-272H = test system: EPLC-272H
Procedure, shortened: as §1

ABC-1 = test system: ABC-1
Procedure, shortened: as §1

LCLC-103H = test system: LCLC-103H
Procedure, shortened: as §1

NCI-H3122 = test system: NCI-H3122
Procedure, shortened: as §1

ChaGo-K-1 = test system: ChaGo-K-1
Procedure, shortened: as §1

NCI-H2085 = test system: NCI-H2085
Procedure, shortened: as §1

HCC-15 = test system: HCC-15
Procedure, shortened: as §1

COR-L23 = test system: COR-L23
Procedure, shortened: as §1

NCI-H2228 = test system: NCI-H2228
Procedure, shortened: as §1

HCC-827 = test system: HCC-827
Procedure, shortened: as §1

NCI-H2347 = test system: NCI-H2347
Procedure, shortened: as §1

HCC-366 = test system: HCC-366
Procedure, shortened: as §1

NCI-H2023 = test system: NCI-H2023
Procedure, shortened: as §1

NCI-H1944 = test system: NCI-H1944
Procedure, shortened: as §1

NCI-H1355 = test system: NCI-H1355
Procedure, shortened: as §1

PC-14 = test system: PC-14
Procedure, shortened: as §1

SW 1573 = test system: SW 1573
Procedure, shortened: as §1

NCI-H2009 = test system: NCI-H2009
Procedure, shortened: as §1

NCI-H2405 = test system: NCI-H2405
Procedure, shortened: as §1

NCI-H1734 = test system: NCI-H1734
Procedure, shortened: as §1

HCC-44 = test system: HCC-44
Procedure, shortened: as §1

CN1CCN(CCOc2cc(OC3CCOCC3)c3c(Nc4c(Cl)ccc5c4OCO5)ncnc3c2)CC1 [Saracatinib] + N=C(N)NC(=N)NCCc1ccccc1 [Phenformin] (partner 250 µM) showed a relative viability (NCI-H1793; first compound 0.02 µM) of 0.439, a relative viability (NCI-H1793; first compound 0.6325 µM) of 0.308 and a relative viability (NCI-H1793; first compound 2 µM) of 0.263. It also gave a relative viability (EPLC-272H; first compound 0.02 µM) of 0.285, a relative viability (EPLC-272H; first compound 0.2 µM) of 0.327 and a relative viability (EPLC-272H; first compound 0.6325 µM) of 0.319. It also gave a relative viability (EPLC-272H; first compound 2 µM) of 0.251, a relative viability (ABC-1; first compound 0.02 µM) of 0.251 and a relative viability (ABC-1; first compound 0.2 µM) of 0.238. It also gave a relative viability (ABC-1; first compound 0.6325 µM) of 0.231, a relative viability (ABC-1; first compound 2 µM) of 0.215 and a relative viability (LCLC-103H; first compound 0.02 µM) of 0.337. For the same molecule, the relative viability (LCLC-103H; first compound 0.2 µM) was 0.354, the relative viability (LCLC-103H; first compound 0.6325 µM) was 0.37 and the relative viability (LCLC-103H; first compound 2 µM) was 0.314. The relative viability (NCI-H3122; first compound 0.02 µM) was 0.385, the relative viability (NCI-H3122; first compound 0.2 µM) was 0.248 and the relative viability (NCI-H3122; first compound 0.6325 µM) was 0.301. The relative viability (NCI-H3122; first compound 2 µM) was 0.285, the relative viability (ChaGo-K-1; first compound 0.02 µM) was 0.564 and the relative viability (ChaGo-K-1; first compound 0.2 µM) was 0.314. For the same molecule, the relative viability (ChaGo-K-1; first compound 0.6325 µM) was 0.447, the relative viability (ChaGo-K-1; first compound 2 µM) was 0.381 and the relative viability (NCI-H2085; first compound 0.2 µM) was 0.694. For the same molecule, the relative viability (NCI-H2085; first compound 0.6325 µM) was 0.809, the relative viability (NCI-H2085; first compound 2 µM) was 0.667 and the relative viability (HCC-15; first compound 0.02 µM) was 0.487. For the same molecule, the relative viability (HCC-15; first compound 0.2 µM) was 0.402, the relative viability (HCC-15; first compound 0.6325 µM) was 0.417 and the relative viability (HCC-15; first compound 2 µM) was 0.329. The relative viability (COR-L23; first compound 0.02 µM) was 0.466, the relative viability (COR-L23; first compound 0.2 µM) was 0.393 and the relative viability (COR-L23; first compound 0.6325 µM) was 0.481. It also gave a relative viability (COR-L23; first compound 2 µM) of 0.449, a relative viability (NCI-H2228; first compound 0.02 µM) of 0.345 and a relative viability (NCI-H2228; first compound 0.2 µM) of 0.327. For the same molecule, the relative viability (NCI-H2228; first compound 0.6325 µM) was 0.346, the relative viability (NCI-H2228; first compound 2 µM) was 0.194 and the relative viability (HCC-827; first compound 0.02 µM) was 0.4. The relative viability (HCC-827; first compound 0.2 µM) was 0.221, the relative viability (HCC-827; first compound 0.6325 µM) was 0.134 and the relative viability (HCC-827; first compound 2 µM) was 0.144. It also gave a relative viability (NCI-H2347; first compound 0.02 µM) of 0.38, a relative viability (NCI-H2347; first compound 0.2 µM) of 0.26 and a relative viability (NCI-H2347; first compound 0.6325 µM) of 0.377. For the same molecule, the relative viability (NCI-H2347; first compound 2 µM) was 0.342, the relative viability (HCC-366; first compound 0.02 µM) was 0.694 and the relative viability (HCC-366; first compound 0.6325 µM) was 0.599. For the same molecule, the relative viability (HCC-366; first compound 2 µM) was 0.346, the relative viability (NCI-H2023; first compound 0.02 µM) was 0.448 and the relative viability (NCI-H2023; first compound 0.2 µM) was 0.303. It also gave a relative viability (NCI-H2023; first compound 0.6325 µM) of 0.236, a relative viability (NCI-H2023; first compound 2 µM) of 0.257 and a relative viability (NCI-H1944; first compound 0.02 µM) of 0.227. For the same molecule, the relative viability (NCI-H1944; first compound 0.6325 µM) was 0.161, the relative viability (NCI-H1944; first compound 2 µM) was 0.141 and the relative viability (NCI-H1355; first compound 0.02 µM) was 0.453. The relative viability (NCI-H1355; first compound 0.2 µM) was 0.397, the relative viability (NCI-H1355; first compound 0.6325 µM) was 0.453 and the relative viability (NCI-H1355; first compound 2 µM) was 0.407. For the same molecule, the relative viability (PC-14; first compound 0.02 µM) was 0.646, the relative viability (PC-14; first compound 0.2 µM) was 0.441 and the relative viability (PC-14; first compound 0.6325 µM) was 0.256. It also gave a relative viability (PC-14; first compound 2 µM) of 0.124, a relative viability (SW 1573; first compound 0.02 µM) of 0.537 and a relative viability (SW 1573; first compound 0.2 µM) of 0.382. For the same molecule, the relative viability (SW 1573; first compound 0.6325 µM) was 0.313, the relative viability (SW 1573; first compound 2 µM) was 0.313 and the relative viability (NCI-H2009; first compound 0.02 µM) was 0.45. It also gave a relative viability (NCI-H2009; first compound 0.2 µM) of 0.428, a relative viability (NCI-H2009; first compound 0.6325 µM) of 0.389 and a relative viability (NCI-H2009; first compound 2 µM) of 0.334. It also gave a relative viability (NCI-H2405; first compound 0.02 µM) of 0.406, a relative viability (NCI-H2405; first compound 0.2 µM) of 0.328 and a relative viability (NCI-H2405; first compound 0.6325 µM) of 0.304. The relative viability (NCI-H2405; first compound 2 µM) was 0.185, the relative viability (NCI-H1734; first compound 0.02 µM) was 0.375 and the relative viability (NCI-H1734; first compound 0.6325 µM) was 0.375. It also gave a relative viability (NCI-H1734; first compound 2 µM) of 0.308, a relative viability (HCC-44; first compound 0.02 µM) of 0.316 and a relative viability (HCC-44; first compound 0.2 µM) of 0.227. For the same molecule, the relative viability (HCC-44; first compound 0.6325 µM) was 0.333 and the relative viability (HCC-44; first compound 2 µM) was 0.199.
